Four compounds from ChEMBL document CHEMBL5512662, “Illuminating Dark Chemical Matter Using the Cell Painting Assay” (J Med Chem, 2024) can be followed below.

One test concerns C3H 10T1/2. Description: Inhibition of purmorphamine-induced osteoblast differentiation in mouse C3H 10T1/2 cells assessed as reduction in alkaline phosphatase level preincubated for 1 hr followed by purmorphamine addition for 4 days by luminescence based assay. The test is classed as functional, cell-based.
Another test deals with Shh Light II. The experiment in a line: Inhibition of purmorphamine-induced osteoblast differentiation in mouse Shh Light II cells preincubated for 1 hr followed by purmorphamine addition for 48 hrs by luminescence based reporter gene assay. The test is classed as functional, cell-based.

Structures are written as SMILES.

Turning to `CCOc1ccc(Oc2nc(Nc3ccc(C)cc3)nc(N(C)C)n2)nn1`, the IC50 in the test with C3H 10T1/2 is 320 nM. As to `COCCNC(=O)C1CCN(C(=O)c2cc3sccc3n2Cc2ccc(F)cc2)CC1`, the results for the IC50 with C3H 10T1/2 and in the test on Shh Light II were 90 nM and 470 nM, respectively. Regarding `COc1ccccc1CCNC(=O)CCCn1nc(C)c2c(C)n(-c3ccc(C)cc3)nc2c1=O`, the IC50 in the test with C3H 10T1/2 worked out at 540 nM; in the test on Shh Light II, 1400 nM. Consider `CN(CCCNC(=O)c1nn(C)c2c1CS(=O)(=O)c1ccccc1-2)Cc1ccccc1`, for which the IC50 in the test on C3H 10T1/2 amounted to 310 nM; in the test on Shh Light II, 2170 nM.

As a reminder, the IC50 is the concentration at which inhibition is half-maximal.
